Patent publication US8431577B2, “Crystalline form of eszopiclone, composition, preparation and uses thereof” (Tianjin Tasly Group Co., Ltd., priority 2008, dated 2013)
Like-named read-outs stand apart in the source and are kept apart here.

Experiments:
[1] = Safety after single oral administration in healthy volunteers; format: in vivo, human
Description: Safety indices: a series of indices were measured when conducting screening and 24 hours after administration, including vital signs, physical examination, ECG and laboratory test. During the test, adverse event was recorded on time.
Safety: meaningful clinical safety indices are tabulated according to the type and the frequency thereof.
Bitter taste in mouth was reported as severe adverse reaction by a majority of subjects (25%˜40%), and another adverse reaction was dizziness and headache. […] Two subjects in the group of the dose of 12 mg/kg BW experienced the state of delirium, including talkativeness, hyperactivity and unconsciousness. […] Within 12 hours after administration, all adverse reactions disappeared without special treatment.

[2] = Accelerated stability test; settings: 40±2° C., RH 75±5%
Description: The crystalline form of S-zopiclone was packaged in packages simulated the commercial ones, and placed in a thermostat container (temperature: 40±2° C., RH:75±5%) for 6 months. The specimens were sampled on the 1st, 2nd, 3rd and 6th month respectively to measure their stability in accordance with the key stability-relevant items.

Male Long-Evans rats = assay: Test of spontaneous activity; format: in vivo, rat; settings: 10 mg/Kg body weight
Description: Male Long-Evans rats (weighing 250˜275 g) were adopted, divided into 3 groups, and fed in a 12-hour light-dark cycle. After one week of feeding, the experiment was carried out.
Horizontal activity of rats had been observed under an open circumstance to measure a total spontaneous activity. Respectively, all animals were placed into 8 black light-proof rooms, and their spontaneous activities were monitored by an infrared sensor mounted on the wall at equal intervals to record once every 10 minutes for 120 minutes.
The crystalline form of S-zopiclone was administrated to the animals at a dose of 10 mg/Kg body weight. 30˜60 minutes after administration, the inhibitory effect on the locomotor ability reached a peak, and disappeared after 2 hours.

[3] = Long-term reserved-sample stability test; format: physicochemical; settings: room temperature
Source text: The crystalline form of S-zopiclone was packaged in packages simulated the commercial ones, and placed at room temperature. The specimens were sampled on the 3rd, 6th, 9th, 12th, 18th, 24th, and 36th month respectively to measure their stability in accordance with the key stability-relevant items.

[4] = Crystal transformation under the stability tests (X-ray diffraction); format: physicochemical; settings: under all stability tests (60° C., RH 92.5%, strong light, accelerated, long-term)
[5] = for Content (%) / Related substances (%) Levozopiclone / Related substances (%) Other impurities: Strong light exposure (4500±500 Lx)
Source text: The specimens were sampled on the 5th and 10th day respectively to measure their stability in accordance with the key stability-relevant items.

[6] = High humidity (25° C., RH 92.5%) stability test; format: physicochemical; settings: for Content (%) / Related substances (%) Levozopiclone / Related substances (%) Other impurities: High humidity (92.5%), 25° C.; for Weight gain: high humidity 25° C., RH 92.5%
Description: The crystalline form of S-zopiclone of the present invention was introduced into an open and colorless transparent weighing-bottle batch by batch, and placed in a closed vessel (KNO3 saturated solution, RH: 92.5%) for 10 days. The specimens were sampled on the 5th and 10th day respectively to measure their stability in accordance with the key stability-relevant items. Meanwhile, the weight of the tested drug pre-and post test was measured accurately.

Structure (SMILES): CN1CCN(C(=O)O[C@H]2c3nccnc3C(=O)N2c2ccc(Cl)cn2)CC1 [crystalline form of S-zopiclone, (+)-(S)-(4-methylpiperazine-1-carboxylate)(6-(5-chloropyridinyl-2-yl)-7-carbonyl-6,7-dihydro-5-H-pyrrolo[3,4-b]pyrazin-5-yl ester)]
- subjects experiencing the state of delirium (talkativeness, hyperactivity, unconsciousness) ([1]; 12 mg dose group): Two subjects
- types and frequencies of adverse reactions versus low and moderate dose groups ([1]; high dose group (12 mg)): more types and higher frequencies of adverse reactions
- time after administration within which all adverse reactions disappeared ([1]; without special treatment): ≤ 12 h
- stability (character, melting point, related substances versus 0th day) ([2]; 6 months of accelerated test): remained stable
- Content (%) ([2]; month 0): 100.06%
- Related substances (%) Levozopiclone ([2]; month 0): 0.06%
- Related substances (%) Other impurities ([2]; month 0): 0.09%
- Content (%) ([2]; month 1): 100.13%
- Related substances (%) Levozopiclone ([2]; month 1): 0.07%
- Related substances (%) Other impurities ([2]; month 1): 0.10%
- Content (%) ([2]; month 2): 100.02%
- Related substances (%) Levozopiclone ([2]; month 2): 0.07%
- Related substances (%) Other impurities ([2]; month 2): 0.12%
- Content (%) ([2]; month 3): 99.91%
- Related substances (%) Levozopiclone ([2]; month 3): 0.05%
- Related substances (%) Other impurities ([2]; month 3): 0.12%
- Content (%) ([2]; month 6): 99.73%
- Related substances (%) Levozopiclone ([2]; month 6): 0.06%
- Related substances (%) Other impurities ([2]; month 6): 0.09%
- time after which inhibitory effect on the locomotor ability disappeared (Male Long-Evans rats): 2 h
- stability (character, melting point, related substances versus 0th day) ([3]; long-term reserved-sample test, up to 36 months): remained stable
- Content (%) ([3]; month 0): 100.06%
- Related substances (%) Levozopiclone ([3]; month 0): 0.06%
- Related substances (%) Other impurities ([3]; month 0): 0.09%
- Content (%) ([3]; month 3): 100.3%
- Related substances (%) Levozopiclone ([3]; month 3): 0.06%
- Related substances (%) Other impurities ([3]; month 3): 0.11%
- Content (%) ([3]; month 6): 100.21%
- Related substances (%) Levozopiclone ([3]; month 6): 0.06%
- Related substances (%) Other impurities ([3]; month 6): 0.14%
- Content (%) ([3]; month 9): 100.16%
- Related substances (%) Levozopiclone ([3]; month 9): 0.04%
- Related substances (%) Other impurities ([3]; month 9): 0.14%
- Content (%) ([3]; month 12): 100.08%
- Related substances (%) Levozopiclone ([3]; month 12): 0.06%
- Related substances (%) Other impurities ([3]; month 12): 0.14%
- Content (%) ([3]; month 18): 100.12%
- Related substances (%) Levozopiclone ([3]; month 18): 0.07%
- Related substances (%) Other impurities ([3]; month 18): 0.17%
- Content (%) ([3]; month 24): 99.80%
- Related substances (%) Levozopiclone ([3]; month 24): 0.07%
- Related substances (%) Other impurities ([3]; month 24): 0.18%
- Content (%) ([3]; month 36): 100.06%
- Related substances (%) Levozopiclone ([3]; month 36): 0.07%
- Related substances (%) Other impurities ([3]; month 36): 0.20%
- phenomenon of crystal transformation [4]: had not been observed
- stability (character, melting point, related substances versus 0th day) ([5]; 10 days of strong light exposure (4500±500 Lx)): remained stable
- Content (%) ([5]; day 0): 100.06%
- Related substances (%) Levozopiclone ([5]; day 0): 0.06%
- Related substances (%) Other impurities ([5]; day 0): 0.09%
- Content (%) ([5]; day 5): 99.77%
- Related substances (%) Levozopiclone ([5]; day 5): 0.08%
- Related substances (%) Other impurities ([5]; day 5): 0.10%
- Content (%) ([5]; day 10): 100.02%
- Related substances (%) Levozopiclone ([5]; day 10): 0.07%
- Related substances (%) Other impurities ([5]; day 10): 0.11%
- Content (%) ([6]; day 0): 100.06%
- Related substances (%) Levozopiclone ([6]; day 0): 0.06%
- Related substances (%) Other impurities ([6]; day 0): 0.09%
- Content (%) ([6]; day 5): 99.86%
- Related substances (%) Levozopiclone ([6]; day 5): 0.08%
- Related substances (%) Other impurities ([6]; day 5): 0.11%
- Content (%) ([6]; day 10): 99.91%
- Related substances (%) Levozopiclone ([6]; day 10): 0.07%
- Related substances (%) Other impurities ([6]; day 10): 0.11%
- Weight gain ([6]; 5th day): 0.07%
- Weight gain ([6]; 10th day): 0.08%
